target: full-length human BTK (Homo sapiens (Human), UniProt Q06187); test: Assay A: microfluidic off-chip mobility shift assay against BTK enzyme; format: biochemical; settings: not given
Protocol: Assay A: Microfluidic Off-Chip Mobility Shift Assay Protocol for Potency Assessment Against BTK Enzyme
The protocol below describes microfluidic, off-chip mobility shift kinase assay to measure inherent potency of compounds against BTK enzyme.
5 uL of enzyme buffer and 7.5 uL of ATP/kinKDR peptide substrate mix were added to Matrix (#115304) 384-well, sterile, polypropylene plates (Thermo Fisher Scientific, Hudson, N.H.) with 125 nL of serially diluted compounds prepared in 100% DMSO, and incubated for 90 min. at 27° C. Following the incubation period, reactions were stopped by adding 60 uL stop buffer consisting of 100 mM HEPES, pH 7.5, 0.015% Brij-35 (30%), 0.277% Coating Reagent #3 (Caliper Life Sciences, Mountain View, Calif.), 5% DMSO. Stopped reactions were monitored at −2 PSI, −3000 V/−700 V in a LabChip 3000 plate reader from Caliper Life Sciences, a PerkinElmer Company (Hopkinton, Mass.), and the activity was measured by off-chip mobility shift assay measuring the charge/mass difference between substrate and product resulting from peptide phosphorilation. IC50 and efficacy were determined by plotting log [Inhibitor] vs. % Activity in GeneData Screener (Basel. Switzerland).

Sequence of full-length human BTK (Q06187 whole entry): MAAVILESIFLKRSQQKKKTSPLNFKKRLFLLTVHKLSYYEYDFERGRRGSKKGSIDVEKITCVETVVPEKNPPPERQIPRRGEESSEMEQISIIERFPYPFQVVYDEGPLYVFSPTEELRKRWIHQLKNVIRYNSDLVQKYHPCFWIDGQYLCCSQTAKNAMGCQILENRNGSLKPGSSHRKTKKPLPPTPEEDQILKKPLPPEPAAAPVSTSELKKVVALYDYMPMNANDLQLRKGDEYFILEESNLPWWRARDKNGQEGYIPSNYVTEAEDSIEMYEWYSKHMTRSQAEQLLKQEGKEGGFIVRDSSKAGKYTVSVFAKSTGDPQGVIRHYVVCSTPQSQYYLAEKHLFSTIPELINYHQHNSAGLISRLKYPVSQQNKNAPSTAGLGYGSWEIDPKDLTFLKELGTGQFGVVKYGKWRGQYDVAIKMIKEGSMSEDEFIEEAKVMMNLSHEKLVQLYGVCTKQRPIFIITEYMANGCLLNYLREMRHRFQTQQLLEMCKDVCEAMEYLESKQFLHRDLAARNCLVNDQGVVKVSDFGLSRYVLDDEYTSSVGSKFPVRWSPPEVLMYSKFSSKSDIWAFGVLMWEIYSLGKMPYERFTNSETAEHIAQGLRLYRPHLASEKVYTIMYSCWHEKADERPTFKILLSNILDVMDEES

Structure (SMILES)	IC50
CC(C)(C)OC(=O)N1CC=C(c2nc3c(-c4ccc(CNC(=O)c5noc(C(C)(C)C)n5)c(F)c4)ccnc3[nH]2)CC1 [Example 137, tert-butyl 4-(7-(4-((5-(tert-butyl)-1,2,4-oxadiazole-3-carboxamido)methyl)-3-fluorophenyl)-3H-imidazo[4,5-b]pyridin-2-yl)-5,6-dihydropyridine-1(2H)-carboxylate]	< 0.1 µM
CC(C)(C)c1noc(C(=O)NCc2ccc(-c3ccnc4[nH]c(-c5ccncc5)nc34)cc2F)n1 [Example 150, 3-(tert-butyl)-N-(2-fluoro-4-(2-(pyridin-4-yl)-3H-imidazo[4,5-b]pyridin-7-yl)benzyl)-1,2,4-oxadiazole-5-carboxamide]	< 0.1 µM
CC(C)(C)c1nc(C(=O)Nc2cccc(-c3ccnc4[nH]c(-c5ccc(N6CCC(F)(F)CC6)cc5)nc34)c2CO)no1 [Example 48, 5-tert-Butyl-N-(3-[2-[4-(4,4-difluoropiperidin-1-yl)phenyl]-3H-imidazo[4,5-b]pyridin-7-yl]-2-(hydroxymethyl)phenyl)-1,2,4-oxadiazole-3-carboxamide]	0.1 to 1 µM
Cn1cc(-c2nc3c(-c4ccc5c(c4)CCN(C(=O)c4nc(C(C)(C)C)no4)C5)ccnc3[nH]2)cn1 [Example 154, (3-tert-Butyl-[1,2,4]oxadiazol-5-yl)-{6-[2-(1-methyl-1H-pyrazol-4-yl)-3H-imidazo[4,5-b]pyridin-7-yl]-3,4-dihydro-1H-isoquinolin-2-yl}-methanone]	> 5 µM
CN1CCC(c2ccc(-c3nc4c(-c5ccc(CNC(=O)c6noc(C(C)(C)C)n6)c(F)c5)ccnc4[nH]3)nc2)CC1 [Example 169, 5-tert-butyl-N-[(2-fluoro-4-[2-[5-(1-methylpiperidin-4-yl)pyridin-2-yl]-3H-imidazo[4,5-b]pyridin-7-yl]phenyl)methyl]-1,2,4-oxadiazole-3-carboxamide]	< 0.1 µM
Cn1cc(-c2nc3c(-c4ccc(CNS(=O)(=O)CC5CCCS(=O)(=O)C5)c(F)c4)ccnc3[nH]2)cn1 (centres unmarked) [Example 179, 1-(1,1-dioxidotetrahydro-2H-thiopyran-3-yl)-N-(2-fluoro-4-(2-(1-methyl-1H-pyrazol-4-yl)-3H-imidazo[4,5-b]pyridin-7-yl)benzyl)methanesulfonamide]	> 5 µM
Cn1cc(-c2nc3c(-c4ccc(CNCc5ccc(F)c(F)c5)c(F)c4)ccnc3[nH]2)cn1 [Example 174, N-(3,4-difluorobenzyl)-1-(2-fluoro-4-(2-(1-methyl-1H-pyrazol-4-yl)-3H-imidazo[4,5-b]pyridin-7-yl)phenyl)methanamine]	> 5 µM
Cc1ccc(S(=O)(=O)NCc2ccc(-c3ccnc4[nH]c(-c5cnn(C)c5)nc34)cc2F)cc1 [Example 175, N-(2-fluoro-4-(2-(1-methyl-1H-pyrazol-4-yl)-3H-imidazo[4,5-b]pyridin-7-yl)benzyl)-4-methylbenzenesulfonamide]	> 5 µM
Cc1cc(-c2ccnc3[nH]c(-c4ccc(OCC(O)CO)cn4)nc23)ccc1CN1CCOc2cc(C3CC3)cc(F)c2C1=O (centres unmarked) [Example 170, 8-cyclopropyl-4-[(4-[2-[5-(2,3-dihydroxypropoxy)pyridin-2-yl]-3H-imidazo[4,5-b]pyridin-7-yl]-2-methylphenyl)methyl]-6-fluoro-2,3,4,5-tetrahydro-1,4-benzoxazepin-5-one]	< 0.1 µM
Cn1cc(-c2nc3c(-c4ccc(CNCc5cccnc5)c(F)c4)ccnc3[nH]2)cn1 [Example 173, N-(2-fluoro-4-(2-(1-methyl-1H-pyrazol-4-yl)-3H-imidazo[4,5-b]pyridin-7-yl)benzyl)-1-(pyridin-3-yl)methanamine]	> 5 µM
Cn1cc(-c2nc3c(-c4ccc(CN5CCOc6cc(C7CC7)cc(F)c6C5=O)nc4)ccnc3[nH]2)cn1 [Example 171, 8-cyclopropyl-6-fluoro-4-([5-[2-(1-methyl-1H-pyrazol-4-yl)-3H-imidazo[4,5-b]pyridin-7-yl]pyridin-2-yl]methyl)-2,3,4,5-tetrahydro-1,4-benzoxazepin-5-one]	< 0.1 µM
CN(C)c1ccc(-c2nc3c(-c4ccc(CNC(=O)c5nnc(C(C)(C)C)o5)c(F)c4)ccnc3[nH]2)nc1 [Example 172, 5-tert-butyl-N-[(4-[2-[5-(dimethylamino)pyridin-2-yl]-3H-imidazo[4,5-b]pyridin-7-yl]-2-fluorophenyl)methyl]-1,3,4-oxadiazole-2-carboxamide]	< 0.1 µM
Cn1cc(-c2nc3c(-c4cccc(CNC(=O)c5noc(C(C)(C)C)n5)c4)ccnc3[nH]2)cn1 [Example 87, 5-tert-Butyl-N-([3-[2-(1-methyl-1H-pyrazol-4-yl)-3H-imidazo[4,5-b]pyridin-7-yl]phenyl]methyl)-1,2,4-oxadiazole-3-carboxamide]	1 to 5 µM
Cn1cc(-c2nc3c(-c4ccc(CNCc5ccc(C(C)(C)C)cc5)c(F)c4)ccnc3[nH]2)cn1 [Example 181, N-(4-(tert-butyl)benzyl)-1-(2-fluoro-4-(2-(1-methyl-1H-pyrazol-4-yl)-3H-imidazo[4,5-b]pyridin-7-yl)phenyl)methanamine]	> 5 µM
COc1ccc(-c2nc3c(-c4ccc(CNC(=O)c5nnc(C(C)(C)C)o5)c(F)c4)ccnc3[nH]2)nc1 [Example 158, 5-tert-butyl-N-([2-fluoro-4-[2-(5-methoxypyridin-2-yl)-3H-imidazo[4,5-b]pyridin-7-yl]phenyl]methyl)-1,3,4-oxadiazole-2-carboxamide]	< 0.1 µM
NCc1ccc(-c2ccnc3[nH]c(-c4cnn(C5CCC5)c4)nc23)cc1F [Example 188, 4-[2-(1-Cyclobutyl-1H-pyrazol-4-yl)-3H-imidazo[4,5-b]pyridin-7-yl]-2-fluoro-benzylamine]	1 to 5 µM
Cn1cc(-c2nc3c(-c4ccc(CNCc5cccc(C(C)(C)C)c5)c(F)c4)ccnc3[nH]2)cn1 [Example 180, N-(3-(tert-butyl)benzyl)-1-(2-fluoro-4-(2-(1-methyl-1H-pyrazol-4-yl)-3H-imidazo[4,5-b]pyridin-7-yl)phenyl)methanamine]	> 5 µM
Cn1cc(-c2nc3c(-c4ccc(CNS(=O)(=O)CCC5CCC5)c(F)c4)ccnc3[nH]2)cn1 [Example 178, 2-cyclobutyl-N-(2-fluoro-4-(2-(1-methyl-1H-pyrazol-4-yl)-3H-imidazo[4,5-b]pyridin-7-yl)benzyl)ethanesulfonamide]	1 to 5 µM
Cn1cc(-c2nc3c(-c4ccc(CNS(C)(=O)=O)c(F)c4)ccnc3[nH]2)cn1 [Example 176, N-(2-fluoro-4-(2-(1-methyl-1H-pyrazol-4-yl)-3H-imidazo[4,5-b]pyridin-7-yl)benzyl)methanesulfonamide]	> 5 µM
Cc1ccc(-n2ccn(-c3cccc(-c4ccnc5[nH]c(-c6ccc(C(=O)N7CCOCC7)cc6)nc45)c3CO)c2=O)cc1 [Example 96, 1-[2-(Hydroxymethyl)-3-(2-[4-[(morpholin-4-yl)carbonyl]phenyl]-3H-imidazo[4,5-b]pyridin-7-yl)phenyl]-3-(4-methylphenyl)-2,3-dihydro-1H-imidazol-2-one]	0.1 to 1 µM
CC(C)(C)c1nc(C(=O)NCc2ccc(-c3ccnc4[nH]c(-c5ccc(N6CCC(F)CC6)cn5)nc34)cc2F)no1 [Example 167, 5-tert-butyl-N-[(2-fluoro-4-[2-[5-(4-fluoropiperidin-1-yl)pyridin-2-yl]-3H-imidazo[4,5-b]pyridin-7-yl]phenyl)methyl]-1,2,4-oxadiazole-3-carboxamide]	< 0.1 µM
Cn1cc(-c2nc3c(-c4ccc(CNS(=O)(=O)CC5(CC#N)CC5)c(F)c4)ccnc3[nH]2)cn1 [Example 177, 1-(1-(cyanomethyl)cyclopropyl)-N-(2-fluoro-4-(2-(1-methyl-1H-pyrazol-4-yl)-3H-imidazo[4,5-b]pyridin-7-yl)benzyl)methanesulfonamide]	1 to 5 µM
Cn1cc(-c2nc3c(-c4ccc(C5(NC(=O)c6nnc(C(C)(C)C)o6)CC5)cc4)ccnc3[nH]2)cn1 [Example 97, 5-tert-Butyl-[1,3,4]oxadiazole-2-carboxylic acid (1-{4-[2-(1-methyl-1H-pyrazol-4-yl)-3H-imidazo[4,5-b]pyridin-7-yl]-phenyl}-cyclopropyl)-amide]	< 0.1 µM
CC(C)(C)c1noc(C(=O)NCc2ccc(-c3ccnc4[nH]c(-c5ccc(N6CCCCC6)cn5)nc34)cc2F)n1 [Example 157, 3-tert-Butyl-N-[(2-fluoro-4-[2-[5-(piperidin-1-yl)pyridin-2-yl]-3H-imidazo[4,5-b]pyridin-7-yl]phenyl)methyl]-1,2,4-oxadiazole-5-carboxamide]	< 0.1 µM

target: BTK C481S (His-TEV-hsBTK(328-659)(C481S)) (Homo sapiens (Human), UniProt Q06187, C481S); test: Assay B: microfluidic off-chip mobility shift assay against BTK C481S enzyme; format: biochemical; settings: BTK C481S mutant
Sequence (Q06187 328-659 C481S): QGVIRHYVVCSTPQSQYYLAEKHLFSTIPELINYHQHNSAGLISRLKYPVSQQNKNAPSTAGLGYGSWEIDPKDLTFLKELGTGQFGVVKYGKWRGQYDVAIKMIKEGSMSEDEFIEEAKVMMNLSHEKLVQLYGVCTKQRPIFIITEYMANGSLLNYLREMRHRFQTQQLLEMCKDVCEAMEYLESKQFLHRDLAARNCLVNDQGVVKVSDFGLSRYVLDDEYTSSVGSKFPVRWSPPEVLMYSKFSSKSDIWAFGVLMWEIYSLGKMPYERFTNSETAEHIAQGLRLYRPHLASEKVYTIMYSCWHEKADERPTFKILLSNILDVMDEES
Protocol: The mechanics of the assay platform are described by the vendor (PerkinElmer, Hopkinton, Mass.) on their website at the following URL: http://caliperls.com.
5 uL of enzyme buffer and 7.5 uL of ATP/KinKDR peptide substrate mix were added to Matrix (#4315) 384-well, sterile, flat-bottom polypropylene plates (Thermo Fisher Scientific, Hudson, N.H.) with 125 nL of serially diluted compounds prepared in 100% DMSO, and incubated for 90 min. at 25° C. Following the incubation period, reactions were terminated by adding 65 uL quench buffer consisting of 100 mM HEPES, pH 7.5, 0.015% Brij-35 (30%), 0.277% Coating Reagent #3 (PerkinElmer, Mountain View, Calif.), 5% DMSO. Terminated reactions were monitored at −2 PSI, −3000 V/−700 Volts in a LabChip 3000 plate reader from Caliper Life Sciences, a PerkinElmer Company (Hopkinton, Mass.), and the activity was quantified by laser-induced fluorescence measuring the charge/mass difference between substrate and product resulting from peptide phosphorylation. IC50 and efficacy were determined by plotting log [Inhibitor] vs. % Activity in GeneData Screener (Basel, Switzerland).

Structure (SMILES)	IC50
CC(C)(C)c1noc(C(=O)NCc2ccc(-c3ccnc4[nH]c(-c5ccncc5)nc34)cc2F)n1 [Example 150, 3-(tert-butyl)-N-(2-fluoro-4-(2-(pyridin-4-yl)-3H-imidazo[4,5-b]pyridin-7-yl)benzyl)-1,2,4-oxadiazole-5-carboxamide]	< 0.1 µM
CC(C)(C)c1nc(C(=O)Nc2cccc(-c3ccnc4[nH]c(-c5ccc(N6CCC(F)(F)CC6)cc5)nc34)c2CO)no1 [Example 48, 5-tert-Butyl-N-(3-[2-[4-(4,4-difluoropiperidin-1-yl)phenyl]-3H-imidazo[4,5-b]pyridin-7-yl]-2-(hydroxymethyl)phenyl)-1,2,4-oxadiazole-3-carboxamide]	< 0.1 µM
